Assay results published in ChEMBL document CHEMBL2016536, “New triazole derivatives as antifungal agents: synthesis via click reaction, in vitro evaluation and molecular docking studies” (2012).
Values after ≈ are worked out from the molar mass of the structure shown.

Tests used:
Assay type in all cases: functional
[1] = system: Candida parapsilosis; experiment: Antifungal activity against Candida parapsilosis by microbroth dilution method; conditions: Lodderomyces parapsilosis
[2] = system: Candida tropicalis; experiment: Antifungal activity against Candida tropicalis by microbroth dilution method
[3] = system: Kluyveromyces marxianus; experiment: Antifungal activity against Candida kefyr by microbroth dilution method
[4] = system: Trichophyton rubrum; experiment: Antifungal activity against Trichophyton rubrum by microbroth dilution method
[5] = system: Aspergillus fumigatus; experiment: Antifungal activity against Aspergillus fumigatus by microbroth dilution method
[6] = system: Candida albicans; experiment: Antifungal activity against Candida albicans SC5314 after 24 hrs by microbroth dilution method; conditions: SC5314, 24 h
[7] = system: Candida albicans; experiment: Antifungal activity against Candida albicans Y0109 after 24 hrs by microbroth dilution method; conditions: Y0109, 24 h
[8] = system: Cryptococcus neoformans; experiment: Antifungal activity against Cryptococcus neoformans after 72 hrs by microbroth dilution method

SMILES	MIC80 [1]	MIC80 [2]	MIC80 [3]	MIC80 [4]	MIC80 [5]	MIC80 [6]	MIC80 [7]	MIC80 [8]
C[C@@H](c1ncncc1F)[C@](O)(Cn1cncn1)c1ccc(F)cc1F [VORICONAZOLE]	0.0039 µg/mL (≈ 0.0112 µM)	0.0039 µg/mL (≈ 0.0112 µM)	0.0625 µg/mL (≈ 0.179 µM)	0.0156 µg/mL (≈ 0.0447 µM)	0.0156 µg/mL (≈ 0.0447 µM)	0.0625 µg/mL (≈ 0.179 µM)	0.0625 µg/mL (≈ 0.179 µM)	0.0039 µg/mL (≈ 0.0112 µM)
CC(=O)N1CCN(c2ccc(OCC3COC(Cn4ccnc4)(c4ccc(Cl)cc4Cl)O3)cc2)CC1 (stereo not given) [KETOCONAZOLE]	0.0039 µg/mL (≈ 0.00734 µM)	0.0039 µg/mL (≈ 0.00734 µM)	0.0625 µg/mL (≈ 0.118 µM)	0.0156 µg/mL (≈ 0.0294 µM)	0.0156 µg/mL (≈ 0.0294 µM)	0.0625 µg/mL (≈ 0.118 µM)	0.0625 µg/mL (≈ 0.118 µM)	0.0156 µg/mL (≈ 0.0294 µM)
N#Cc1cccc(Cn2cc(CC(O)(Cn3cncn3)c3ccc(F)cc3F)nn2)c1 (stereo not given)	0.25 µg/mL (≈ 0.593 µM)	0.125 µg/mL (≈ 0.297 µM)	< 0.125 µg/mL	0.25 µg/mL (≈ 0.593 µM)	32 µg/mL (≈ 75.9 µM)	0.125 µg/mL (≈ 0.297 µM)	0.0625 µg/mL (≈ 0.148 µM)	1 µg/mL (≈ 2.37 µM)
O=[N+]([O-])c1ccccc1Cn1cc(CC(O)(Cn2cncn2)c2ccc(F)cc2F)nn1 (stereo not given)	< 0.25 µg/mL	0.125 µg/mL (≈ 0.283 µM)	0.0625 µg/mL (≈ 0.142 µM)	0.25 µg/mL (≈ 0.566 µM)	32 µg/mL (≈ 72.5 µM)	< 0.125 µg/mL	0.0625 µg/mL (≈ 0.142 µM)	0.5 µg/mL (≈ 1.13 µM)
OC(Cc1cn(Cc2ccccc2)nn1)(Cn1cncn1)c1ccc(F)cc1F (stereo not given)	0.0625 µg/mL (≈ 0.158 µM)	0.0625 µg/mL (≈ 0.158 µM)	< 0.125 µg/mL	0.25 µg/mL (≈ 0.631 µM)	16 µg/mL (≈ 40.4 µM)	0.125 µg/mL (≈ 0.315 µM)	0.0625 µg/mL (≈ 0.158 µM)	< 0.25 µg/mL
Cc1ccccc1Cn1cc(CC(O)(Cn2cncn2)c2ccc(F)cc2F)nn1 (stereo not given)	0.0625 µg/mL (≈ 0.152 µM)	0.125 µg/mL (≈ 0.305 µM)	0.0039 µg/mL (≈ 0.0095 µM)	0.0625 µg/mL (≈ 0.152 µM)	2 µg/mL (≈ 4.87 µM)	0.0625 µg/mL (≈ 0.152 µM)	0.0156 µg/mL (≈ 0.038 µM)	0.125 µg/mL (≈ 0.305 µM)
OC(Cc1cn(Cc2cccc(Cl)c2)nn1)(Cn1cncn1)c1ccc(F)cc1F (stereo not given)	0.125 µg/mL (≈ 0.29 µM)	0.25 µg/mL (≈ 0.58 µM)	0.0625 µg/mL (≈ 0.145 µM)	0.125 µg/mL (≈ 0.29 µM)	8 µg/mL (≈ 18.6 µM)	< 0.125 µg/mL	0.0625 µg/mL (≈ 0.145 µM)	0.5 µg/mL (≈ 1.16 µM)
CC(C)(C)c1ccc(Cn2cc(CC(O)(Cn3cncn3)c3ccc(F)cc3F)nn2)cc1 (stereo not given)	0.125 µg/mL (≈ 0.276 µM)	0.0625 µg/mL (≈ 0.138 µM)	0.0625 µg/mL (≈ 0.138 µM)	0.0625 µg/mL (≈ 0.138 µM)	4 µg/mL (≈ 8.84 µM)	0.0625 µg/mL (≈ 0.138 µM)	0.0625 µg/mL (≈ 0.138 µM)	< 0.125 µg/mL
COc1ccc(Cn2cc(CC(O)(Cn3cncn3)c3ccc(F)cc3F)nn2)cc1OC (stereo not given)	0.0625 µg/mL (≈ 0.137 µM)	0.125 µg/mL (≈ 0.274 µM)	0.0625 µg/mL (≈ 0.137 µM)	0.0625 µg/mL (≈ 0.137 µM)	2 µg/mL (≈ 4.38 µM)	0.0625 µg/mL (≈ 0.137 µM)	0.0156 µg/mL (≈ 0.0342 µM)	0.0625 µg/mL (≈ 0.137 µM)
C[C@@H]1[C@H](O)[C@@H](C)/C=C/C=C/C=C/C=C/C=C/C=C/C=C/[C@H](O[C@@H]2O[C@H](C)[C@@H](O)[C@H](N)[C@@H]2O)C[C@@H]2O[C@](O)(C[C@@H](O)C[C@@H](O)[C@H](O)CC[C@@H](O)C[C@@H](O)CC(=O)O[C@H]1C)C[C@H](O)[C@H]2C(=O)O [AMPHOTERICIN B]	0.25 µg/mL (≈ 0.271 µM)	1 µg/mL (≈ 1.08 µM)	0.25 µg/mL (≈ 0.271 µM)	4 µg/mL (≈ 4.33 µM)	1 µg/mL (≈ 1.08 µM)	0.25 µg/mL (≈ 0.271 µM)	0.25 µg/mL (≈ 0.271 µM)	1 µg/mL (≈ 1.08 µM)
OC(Cc1cn(Cc2cccc(Br)c2)nn1)(Cn1cncn1)c1ccc(F)cc1F (stereo not given)	0.125 µg/mL (≈ 0.263 µM)	0.25 µg/mL (≈ 0.526 µM)	0.125 µg/mL (≈ 0.263 µM)	0.25 µg/mL (≈ 0.526 µM)	8 µg/mL (≈ 16.8 µM)	< 0.125 µg/mL	0.0625 µg/mL (≈ 0.131 µM)	0.25 µg/mL (≈ 0.526 µM)
OC(Cc1cn(Cc2cccc(F)c2)nn1)(Cn1cncn1)c1ccc(F)cc1F (stereo not given)	0.125 µg/mL (≈ 0.302 µM)	0.25 µg/mL (≈ 0.603 µM)	0.0625 µg/mL (≈ 0.151 µM)	0.25 µg/mL (≈ 0.603 µM)	32 µg/mL (≈ 77.2 µM)	< 0.125 µg/mL	0.0625 µg/mL (≈ 0.151 µM)	0.25 µg/mL (≈ 0.603 µM)
CCC(C)n1ncn(-c2ccc(N3CCN(c4ccc(OCC5COC(Cn6cncn6)(c6ccc(Cl)cc6Cl)O5)cc4)CC3)cc2)c1=O (stereo not given) [ITRACONAZOLE]	0.0625 µg/mL (≈ 0.0886 µM)	0.0625 µg/mL (≈ 0.0886 µM)	0.125 µg/mL (≈ 0.177 µM)	0.0625 µg/mL (≈ 0.0886 µM)	0.0625 µg/mL (≈ 0.0886 µM)	0.0625 µg/mL (≈ 0.0886 µM)	0.0625 µg/mL (≈ 0.0886 µM)	0.0625 µg/mL (≈ 0.0886 µM)
OC(Cc1cn(Cc2ccccc2Br)nn1)(Cn1cncn1)c1ccc(F)cc1F (stereo not given)	0.0625 µg/mL (≈ 0.131 µM)	0.0625 µg/mL (≈ 0.131 µM)	0.0625 µg/mL (≈ 0.131 µM)	0.25 µg/mL (≈ 0.526 µM)	4 µg/mL (≈ 8.42 µM)	0.0625 µg/mL (≈ 0.131 µM)	0.0625 µg/mL (≈ 0.131 µM)	0.25 µg/mL (≈ 0.526 µM)
Cc1cccc(Cn2cc(CC(O)(Cn3cncn3)c3ccc(F)cc3F)nn2)c1 (stereo not given)	0.0625 µg/mL (≈ 0.152 µM)	0.125 µg/mL (≈ 0.305 µM)	0.0156 µg/mL (≈ 0.038 µM)	0.0625 µg/mL (≈ 0.152 µM)	4 µg/mL (≈ 9.75 µM)	0.0625 µg/mL (≈ 0.152 µM)	0.0156 µg/mL (≈ 0.038 µM)	0.125 µg/mL (≈ 0.305 µM)
